“And” between values parts separate entries of the source, which are not always exact repeats. Equal entries are not always repeated. Inconclusive results and toxic doses are left out.
System: P388 leukemia ip, CD2F1 mice, survival T/C
Experiment: NCI In Vivo Anticancer Drug Screen. Data for tumor model P388 Leukemia (intraperitoneal) in CD2F1 (CDF1) mice
Settings: endpoint: median survival time, higher = longer survival
Summary of the method: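 Mice carrying the transplanted tumor received test compound or vehicle. Survival was recorded in each group, and the value is the treated-group measurement divided by that of the vehicle-treated control group.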

[1] = dose: 50.0 mg/kg/injection, schedule: Q01DX005 (ip), vehicle: saline with Tween-80
[2] = dose: 100.0 mg/kg/injection, schedule: Q01DX005 (ip), vehicle: saline with Tween-80
[3] = dose: 200.0 mg/kg/injection, schedule: Q01DX005 (ip), vehicle: saline with Tween-80
[4] = dose: 50.0 mg/kg/injection, schedule: Q01DX009 (ip), vehicle: saline
[5] = dose: 100.0 mg/kg/injection, schedule: Q01DX009 (ip), vehicle: saline
[6] = dose: 200.0 mg/kg/injection, schedule: Q01DX009 (ip), vehicle: saline
[7] = dose: 400.0 mg/kg/injection, schedule: Q01DX009 (ip), vehicle: saline
[8] = dose: 60.0 mg/kg/injection, schedule: Q01DX005 (ip), vehicle: saline with Tween-80
[9] = dose: 120.0 mg/kg/injection, schedule: Q01DX005 (ip), vehicle: saline with Tween-80
[10] = dose: 240.0 mg/kg/injection, schedule: Q01DX005 (ip), vehicle: saline with Tween-80
[11] = dose: 100.0 mg/kg/injection, schedule: Q01DX001 (ip), vehicle: saline
[12] = dose: 200.0 mg/kg/injection, schedule: Q01DX001 (ip), vehicle: saline

## CCC[CH2][Sn]([N]=C=S)([N]=C=S)[N]=C=S.O=P(c1ccccc1)(c1ccccc1)c1ccccc1.O=P(c1ccccc1)(c1ccccc1)c1ccccc1
dose: 100.0 mg/kg/injection, schedule: Q04DX003 (ip), vehicle: saline
  T/C: 98 % of control
dose: 200.0 mg/kg/injection, schedule: Q04DX003 (ip), vehicle: saline
  T/C: 100 % of control
dose: 400.0 mg/kg/injection, schedule: Q04DX003 (ip), vehicle: saline
  T/C: 99 % of control

## COc1ccc(C(=NCCO)c2ccc(O)cc2)c(OC)c1
[1]
  T/C: 104 % of control
[2]
  T/C: 92 % of control
[3]
  T/C: 91 % of control

## COCC1OCCCO1
dose: 60.0 mg/kg/injection, schedule: Q01DX005 (ip), vehicle: saline
  T/C: 102 % of control
dose: 120.0 mg/kg/injection, schedule: Q01DX005 (ip), vehicle: saline
  T/C: 98 % of control
dose: 240.0 mg/kg/injection, schedule: Q01DX005 (ip), vehicle: saline
  T/C: 97 % of control

## CCN1CNC(=O)NC1
[4]
  T/C: 112 % of control
[5]
  T/C: 111 % of control
[6]
  T/C: 100 % of control
[7]
  T/C: 118 % of control

## Cc1ccc(NC(=O)Oc2ccc(Cl)cc2Cl)c([N+](=O)[O-])c1
dose: 50.0 mg/kg/injection, schedule: Q01DX009 (ip), vehicle: gum acacia
  T/C: 109 % of control
dose: 100.0 mg/kg/injection, schedule: Q01DX009 (ip), vehicle: gum acacia
  T/C: 109 % of control
dose: 200.0 mg/kg/injection, schedule: Q01DX009 (ip), vehicle: gum acacia
  T/C: 109 % of control

## O=C1C=CC(=O)c2c(O)cccc21
dose: 0.39 mg/kg/injection, schedule: Q01DX009 (ip), vehicle: saline with Tween-80
  T/C: 93 % of control
dose: 0.75 mg/kg/injection, schedule: Q01DX009 (ip), vehicle: saline with Tween-80
  T/C: 95 % of control
dose: 0.78 mg/kg/injection, schedule: Q01DX009 (ip), vehicle: saline with Tween-80
  T/C: 93 % of control
dose: 1.5 mg/kg/injection, schedule: Q01DX009 (ip), vehicle: saline with Tween-80
  T/C: 90 % of control
dose: 1.56 mg/kg/injection, schedule: Q01DX009 (ip), vehicle: saline with Tween-80
  T/C: 102 % of control
dose: 3.13 mg/kg/injection, schedule: Q01DX009 (ip), vehicle: saline with Tween-80
  T/C: 90 % of control

## O=C(Nc1ccc(Cl)cc1)Nc1nnc2nc(C(C(=O)c3ccc(F)cc3)c3nc4nnc(NC(=O)Nc5ccc(Cl)cc5)n4[nH]c3=O)c(=O)[nH]n12
[8]
  T/C: 103 % of control
[9]
  T/C: 93 % of control
[10]
  T/C: 86 % of control

## Cc1cc(=O)oc2c1ccc1c(O)cccc12
[8]
  T/C: 106 % of control
[9]
  T/C: 100 % of control

## CC[C@H]1CN2CCc3cc(OC)c(OC)cc3[C@@H]2C[C@@H]1C[C@H]1NCCc2cc(OC)c(OC)cc21
dose: 1.0 mg/kg/injection, schedule: Q01DX009 (ip), vehicle: water
  T/C: 112 % of control and 118 % of control
dose: 4.0 mg/kg/injection, schedule: Q01DX009 (ip), vehicle: water
  T/C: 154 % of control
dose: 4.32 mg/kg/injection, schedule: Q04DX003 (ip), vehicle: saline
  T/C: 118 % of control and 122 % of control
dose: 5.0 mg/kg/injection, schedule: Q04DX003 (ip), vehicle: saline
  T/C: 121 % of control
dose: 5.18 mg/kg/injection, schedule: Q04DX002 (ip), vehicle: saline
  T/C: 106 % of control
dose: 5.18 mg/kg/injection, schedule: Q04DX003 (ip), vehicle: saline
  T/C: 122 % of control
dose: 7.2 mg/kg/injection, schedule: Q04DX003 (ip), vehicle: saline
  T/C: 123 % of control
dose: 8.0 mg/kg/injection, schedule: Q01DX009 (ip), vehicle: water
  T/C: 166 % of control and 183 % of control
dose: 8.64 mg/kg/injection, schedule: Q04DX003 (ip), vehicle: saline
  T/C: 122 % of control
dose: 12.0 mg/kg/injection, schedule: Q04DX003 (ip), vehicle: saline
  T/C: 153 % of control
dose: 14.4 mg/kg/injection, schedule: Q04DX002 (ip), vehicle: saline
  T/C: 151 % of control and 156 % of control
dose: 14.4 mg/kg/injection, schedule: Q04DX003 (ip), vehicle: saline
  T/C: 153 % of control
dose: 16.0 mg/kg/injection, schedule: Q01DX009 (ip), vehicle: water
  T/C: 115 % of control
dose: 20.0 mg/kg/injection, schedule: Q04DX003 (ip), vehicle: saline
  T/C: 169 % of control and 174 % of control and 175 % of control
dose: 24.0 mg/kg/injection, schedule: Q04DX002 (ip), vehicle: saline
  T/C: 175 % of control and 177 % of control
dose: 24.0 mg/kg/injection, schedule: Q04DX003 (ip), vehicle: saline
  T/C: 183 % of control and 213 % of control
dose: 33.3 mg/kg/injection, schedule: Q04DX003 (ip), vehicle: saline
  T/C: 224 % of control and 94 % of control

## COCCc1nn[nH]n1
[4]
  T/C: 110 % of control
[5]
  T/C: 115 % of control
[6]
  T/C: 109 % of control

## O=C1NC(=O)C(CCO)(c2ccccc2)C(=O)N1
[8]
  T/C: 88 % of control
[9]
  T/C: 105 % of control
[10]
  T/C: 100 % of control

## O=C(O)c1cccc2cccc(-c3c4ccc(=O)c(O)c-4oc4c(O)c(O)ccc34)c12
dose: 100.0 mg/kg/injection, schedule: Q01DX009 (ip), vehicle: saline with Tween-80
  T/C: 109 % of control
dose: 200.0 mg/kg/injection, schedule: Q01DX009 (ip), vehicle: saline with Tween-80
  T/C: 113 % of control

## CC1=NC(C)(CO)CO1 (configuration not stated)
[4]
  T/C: 111 % of control
[5]
  T/C: 111 % of control
[6]
  T/C: 108 % of control
[7]
  T/C: 105 % of control

## CCOc1cccc2nncn12
[11]
  T/C: 102 % of control
[12]
  T/C: 103 % of control

## O=CNC(NC=O)NC=O
dose: 25.0 mg/kg/injection, schedule: Q01DX009 (ip), vehicle: saline
  T/C: 109 % of control
[4]
  T/C: 97 % of control
[5]
  T/C: 105 % of control
[6]
  T/C: 104 % of control

## O=C1OCCOCCOCCOCCOCCOC(=O)c2cccc1n2
dose: 100.0 mg/kg/injection, schedule: Q04DX003 (ip), vehicle: Klucel (hydroxypropylcellulose) (HPC)
  T/C: 96 % of control
dose: 200.0 mg/kg/injection, schedule: Q04DX003 (ip), vehicle: Klucel (hydroxypropylcellulose) (HPC)
  T/C: 103 % of control
dose: 400.0 mg/kg/injection, schedule: Q04DX003 (ip), vehicle: Klucel (hydroxypropylcellulose) (HPC)
  T/C: 101 % of control

## COCCO[Si](OCCOC)(OCCOC)c1ccccc1
dose: 50.0 mg/kg/injection, schedule: Q01DX009 (ip), vehicle: Klucel (hydroxypropylcellulose) (HPC)
  T/C: 101 % of control
dose: 100.0 mg/kg/injection, schedule: Q01DX009 (ip), vehicle: Klucel (hydroxypropylcellulose) (HPC)
  T/C: 107 % of control
dose: 200.0 mg/kg/injection, schedule: Q01DX009 (ip), vehicle: Klucel (hydroxypropylcellulose) (HPC)
  T/C: 117 % of control

## CCOC(=O)/C=C/C(=O)NNS(=O)(=O)CCC(NC(=O)OCc1ccccc1)C(=O)OCc1ccccc1 (configuration not stated)
dose: 12.5 mg/kg/injection, schedule: Q01DX009 (ip), vehicle: other
  T/C: 92 % of control
dose: 25.0 mg/kg/injection, schedule: Q01DX009 (ip), vehicle: other
  T/C: 101 % of control
dose: 50.0 mg/kg/injection, schedule: Q01DX009 (ip), vehicle: other
  T/C: 104 % of control
dose: 100.0 mg/kg/injection, schedule: Q01DX009 (ip), vehicle: other
  T/C: 93 % of control
dose: 200.0 mg/kg/injection, schedule: Q01DX009 (ip), vehicle: other
  T/C: 86 % of control

## CCOCCOc1nc(C)cc(C)c1C#N
[1]
  T/C: 102 % of control
[2]
  T/C: 105 % of control
[3]
  T/C: 96 % of control

## O=C(Nc1ccccc1)c1cc2ccccc2oc1=O
dose: 30.0 mg/kg/injection, schedule: Q01DX005 (ip), vehicle: saline with Tween-80
  T/C: 99 % of control
[8]
  T/C: 95 % of control
[9]
  T/C: 94 % of control
[10]
  T/C: 100 % of control

## Cc1cc(C=C2C(=O)NC(=O)NC2=O)cc(C)c1O
dose: 12.5 mg/kg/injection, schedule: Q01DX005 (ip), vehicle: saline with Tween-80
  T/C: 108 % of control
dose: 25.0 mg/kg/injection, schedule: Q01DX005 (ip), vehicle: saline with Tween-80
  T/C: 103 % of control
[1]
  T/C: 105 % of control and 119 % of control
[2]
  T/C: 117 % of control

## COCC1=C(C)CC(C(C)(C)C(=O)OC)C1=O (configuration not stated)
[11]
  T/C: 101 % of control
[12]
  T/C: 101 % of control
dose: 400.0 mg/kg/injection, schedule: Q01DX001 (ip), vehicle: saline
  T/C: 104 % of control

## CN1CCC2(CC1)COCc1ccccc12
dose: 25.0 mg/kg/injection, schedule: Q01DX009 (ip), vehicle: saline with Tween-80
  T/C: 101 % of control
dose: 50.0 mg/kg/injection, schedule: Q01DX009 (ip), vehicle: saline with Tween-80
  T/C: 104 % of control

## CCOC(=O)NP1(=O)NCc2ccccc2CN1
[1]
  T/C: 103 % of control
[2]
  T/C: 99 % of control
[3]
  T/C: 90 % of control

From PubChem BioAssay AID330 (DTP/NCI, 2004)
